Measured values published in patent publication US12655185B2, “Peptide inhibitors of interleukin-23 and their use to treat inflammatory diseases” (Protagonist Therapeutics, Inc., priority 2016, dated 2026).
Bridge positions count the residues as written; N and C are the ends. Peptide text beside a SMILES is read from it.

Key:
[1] = biological target: T1, IL-23 binding to IL23R_huFC (human IL-23R) (Homo sapiens, UniProt P29460+Q9NPF7); experiment: IL23-IL23R Competitive Binding ELISA; conditions: inhibition of IL-23/IL-23R binding; IL-23 0.9 nM; class symbols; read-out: IC50 IL23R_huFC
T1 sequence (Q9NPF7 20-189): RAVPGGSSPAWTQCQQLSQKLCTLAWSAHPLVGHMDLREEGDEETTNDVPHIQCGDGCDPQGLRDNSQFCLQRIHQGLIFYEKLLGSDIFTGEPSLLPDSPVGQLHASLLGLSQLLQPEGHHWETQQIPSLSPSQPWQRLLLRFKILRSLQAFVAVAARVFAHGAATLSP
T1 sequence (P29460 23-328): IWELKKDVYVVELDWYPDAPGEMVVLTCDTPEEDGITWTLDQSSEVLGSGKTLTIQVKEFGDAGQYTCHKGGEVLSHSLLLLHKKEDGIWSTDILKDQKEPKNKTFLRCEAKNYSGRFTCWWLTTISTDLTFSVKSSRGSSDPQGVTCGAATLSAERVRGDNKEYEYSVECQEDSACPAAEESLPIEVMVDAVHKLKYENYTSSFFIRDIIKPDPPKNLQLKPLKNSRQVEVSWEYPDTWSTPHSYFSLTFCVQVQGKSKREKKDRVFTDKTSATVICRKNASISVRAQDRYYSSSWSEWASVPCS
Procedure: Immulon® 4HBX plate was coated with 200 ng/well of IL23R_huFC and incubated overnight at 4° C. […] Serial dilutions of test peptides and IL-23 at a final concentration of 0.9 nM diluted in PBS were added to each well and incubated for 2 hours at room temperature. After the wells were washed, bound IL-23 was detected by incubation with 50 ng/well of goat anti-p40 polyclonal antibodies (R&D Systems #AF309) diluted in PBS for 1 hour at room temperature. The wells were again washed four times with PBST. […] The plate was finally washed as above. Signals were visualized with TMB One Component HRP Membrane Substrate, quenched with 2 M sulfuric acid and read spectrophotometrically at 450 nm.

[2] = biological target: IL-13 binding to IL-13Ra1 (Homo sapiens, UniProt P35225); experiment: Binding of IL-13 to IL-13Ra1; conditions: data not shown
[3] = biological target: T2, mouse IL-23 binding to mouse IL-23R (Mus musculus, UniProt P43432+Q9EQ14); experiment: Mouse IL23/IL23R huFc ELISA; conditions: data not shown
T2 sequence (Q9EQ14 22-196): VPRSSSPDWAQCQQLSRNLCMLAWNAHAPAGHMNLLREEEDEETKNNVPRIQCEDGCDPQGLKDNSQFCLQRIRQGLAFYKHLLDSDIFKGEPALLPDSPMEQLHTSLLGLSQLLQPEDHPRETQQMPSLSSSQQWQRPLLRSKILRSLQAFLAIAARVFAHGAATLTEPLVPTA
T2 sequence (P43432 23-335): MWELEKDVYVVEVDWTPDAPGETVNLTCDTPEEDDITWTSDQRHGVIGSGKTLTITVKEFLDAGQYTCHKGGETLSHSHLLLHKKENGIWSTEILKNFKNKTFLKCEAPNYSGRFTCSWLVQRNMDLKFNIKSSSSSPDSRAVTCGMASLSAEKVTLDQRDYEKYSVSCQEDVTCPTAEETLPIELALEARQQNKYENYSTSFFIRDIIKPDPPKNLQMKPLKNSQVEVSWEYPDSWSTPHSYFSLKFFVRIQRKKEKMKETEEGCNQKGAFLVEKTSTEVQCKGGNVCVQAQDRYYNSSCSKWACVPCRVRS
Procedure: Certain peptides were tested to identify peptides that inhibit the binding of IL-23 to human IL-23R or mouse IL-23R, and inhibit IL-23/IL-23R functional activity, as described below. Each of these peptides comprised a disulfide bond between X5 and X34, except for Peptide 1, which comprises a disulfide bond between X4 and X33.

[4] = biological target: IL-6 binding to IL-6R (Homo sapiens, UniProt P05231); experiment: Binding of IL-6 to IL-6R; conditions: data not shown
[5] = biological target: T3, IL-23 binding to human IL-12Rβ1_huFC (Homo sapiens, UniProt P29460+Q9NPF7); experiment: Human IL23/IL12Rβ1 huFc ELISA
T3 sequence (Q9NPF7 20-189): T1 sequence (Q9NPF7 20-189)
T3 sequence (P29460 23-328): T1 sequence (P29460 23-328)
Procedure: (§1) The ability of Peptide 10 to block binding of IL-23 to IL-12Rβ1 or binding of IL-12 to IL-12Rβ1 was also determined. Human IL-12Rβ1 ELISA assays were performed as follows: an assay plate was coated with 100 ng/well of human IL-12Rβ1_huFC and incubated overnight at 4° C. The wells were washed, blocked, and washed again. Serial dilutions of test peptides and either IL-23 or IL-12 at a fixed concentration corresponding to EC50 values were added to each well, and incubated for 2 hours at room temperature. After the wells were washed, bound IL-23 were detected with goat anti-p40 polyclonal antibodies followed by an HRP conjugated donkey anti-goat IgG, and bound IL-12 were detected with a biotin conjugated anti-p40 monoclonal antibody followed by HRP conjugated streptavidin. Signals were visualized with TMB One Component HRP Membrane Substrate and quenched with 2 M sulfuric acid.

[6] = biological target: T4, IL-12 binding to human IL-12Rβ1_huFC (Homo sapiens, UniProt P29459+P29460); experiment: Human IL12/IL12Rβ1 huFc ELISA
T4 sequence (P29459 23-219): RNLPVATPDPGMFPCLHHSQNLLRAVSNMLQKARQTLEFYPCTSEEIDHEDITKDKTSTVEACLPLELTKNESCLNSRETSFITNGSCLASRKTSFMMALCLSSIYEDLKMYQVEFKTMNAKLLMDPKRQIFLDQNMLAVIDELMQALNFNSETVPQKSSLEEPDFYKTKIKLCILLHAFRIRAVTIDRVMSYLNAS
T4 sequence (P29460 23-328): T1 sequence (P29460 23-328)
Procedure: as §1

[7] = system: human IL-23-dependent release of IL-17 from mouse splenocytes; experiment: Mouse splenocyte assay; assay type: cell-based; conditions: IL-17A release; IL-23 20 ng/mL; 67 hours
Procedure: Frozen mouse splenocytes (Hooke Lab), suspended in RPMI Medium 1640 (Life technologies #22400-089) supplemented with 10% heat inactivated FBS (Life technologies #16140-071), 1×MEM Non-Essential Amino Acid Solution (Life technologies #11140-050), 1 mM sodium pyruvate (Life technologies #11360-070), 100 units of Penicillin-Streptomycin (Life technologies #15140-122, 0.05 mM 2-mercaptoethanol (Life technologies #21985-023) and recombinant human IL-2 (R&D Systems #202-IL-010/CF), were seeded at 4×10E5 cells/well in a 96 well tissue culture plate. Serial dilutions of test peptides and IL-23 at a final concentration of 20 ng/mL were preincubated in a separate assay plate for 60 minutes at 37° C. in a 5% CO2 humidified incubator. Preincubated samples were then added to the culture plate containing splenocytes and incubated for an additional 67 hours at 37° C. in a 5% CO2 humidified incubator. A sandwich ELISA kit for mouse IL17A (Biolegend #436204) was used to measure the amount of IL-17A in each sample supernatants, according to manufacturer's instructions.

CC[C@H](C)[C@@H]1NC(=O)[C@H](CCCCN)NC(=O)[C@H](C)NC(=O)[C@H](Cc2c[nH]c3ccccc23)NC(=O)[C@H](CCCNC(=N)N)NC(=O)[C@H](CCC(N)=O)NC(=O)[C@H](CCC(=O)O)NC(=O)[C@H](CCC(N)=O)NC(=O)[C@H](CC(N)=O)NC(=O)[C@H](CC(C)C)NC(=O)[C@H](CC(N)=O)NC(=O)[C@@H]2CCCN2C(=O)[C@H](CC(=O)O)NC(=O)[C@H](C(C)C)NC(=O)CNC(=O)[C@H](C)NC(=O)[C@H](CCC(=O)O)NC(=O)[C@H](CO)NC(=O)[C@H](CCSC)NC(=O)[C@H](CCCNC(=N)N)NC(=O)[C@H](CCCNC(=N)N)NC(=O)[C@H](CC(C)C)NC(=O)[C@@H](NC(=O)[C@H](CCC(N)=O)NC(=O)[C@H](CCSC)NC(=O)[C@H](CC(N)=O)NC(=O)[C@H](Cc2ccccc2)NC(C)=O)CSSC[C@@H](C(N)=O)NC(=O)[C@H](CC(=O)O)NC(=O)[C@H](CC(=O)O)NC(=O)[C@H](CCSC)NC(=O)[C@H]([C@@H](C)CC)NC(=O)[C@H](CO)NC(=O)[C@H](CCCCN)NC1=O [Peptide 10] (Ac-FNMQCLRRMSEAGVDPNLNQEQRWAKIKSIMDDC-NH2; disulfide 5-34)
IC50 [1]: 1 to 10 µM
blocking of binding of IL-13 to IL-13Ra1 [2]: did not block
blocking of binding of mouse IL-23 to mouse IL-23R [3]: blocked
blocking of binding of IL-6 to IL-6R [4]: did not block
IC50 ([5]; competition binding, IL-23 at EC50): > 100 µM
blocking of binding of IL-23 to IL-12Rβ1 ([5]; result in words): did not block
IC50 ([6]; competition binding, IL-12 at EC50, read-out: Human IL12/IL12Rβ1huFc ELISA): > 100 µM
blocking of binding of IL-12 to IL12Rβ1 ([6]; result in words): did not block
IC50 [7]: 1.6 µM
